The test concerns anaesthetized cats. Nature of the test: Determination of the effect on blood pressure and positive inotropic activity in anaesthetized cats. Conditions: 0.3 mg/kg i.v., average of 2 cats; for Diastolic blood pressure change: anaesthetized cats (sodium pentobarbital), pressure in aorta abdominalis; for Duration of effect (half life) / Increase of dp/dt (contractility parameter dp/dtmax): anaesthetized cats; for Increase of dp/dt (contractility parameter dp/dtmax): pressure in left ventricle, catheter-tip manometer. The format is in vivo. As for the experimental part:
1. Determination of the effect on blood pressure and positive inotropic activity in anaesthetized cats: The tests were carried out on cats which had been anaesthetized with sodium pentobarbital (40 mg/kg i.p. and 8 mg/kg/hour i.v.). The animals breathed spontaneously. The arterial blood pressure was measured in the aorta abdominalis using a Statham pressure transducer (P 23 Dc). To determine the positive inotropic activity the pressure in the left ventricle was measured using a catheter-tip manometer (Millar PC-350 A). From this, the contractility parameter dp/dtmax was obtained using an analogue differentiator. The test substance was injected into a vena femoralis. Polydiol 200 was used as solvent. The substance was tested on 2 cats, dosage 0.3 mg/kg i.v.

Take `CCCc1nc2cc3c(cc2[nH]1)C(C)(C)OC(=O)N3` [C, 8,8-dimethyl-2-n-propyl-8-hydro-(5H)-imidazo[5,4-g][3,1]benzoxazin-6-one]: the “Diastolic blood pressure change” value was -11 mmHg, the “Duration of effect (half life)” value stood at 11 min and the “Increase of dp/dt (contractility parameter dp/dtmax)” value (“Increase of dp/dt” below) is on record as “+31%”.

For `CCN1C(=O)OC(C)(C)c2cc3[nH]c(-c4ccco4)nc3cc21` [D, 5-ethyl-8,8-dimethyl-2-(2-furyl)-8-hydro-(5H)imidazo[5,4-g][3,1]benzoxazin-6-one], the “Diastolic blood pressure change” value is -37 mmHg, the “Duration of effect (half life)” value is 4 min and the “Increase of dp/dt” value is given as “+41%”.

As for `CC1(C)OC(=O)Nc2cc3nc(-c4cccs4)[nH]c3cc21` [F, 8,8-dimethyl-2-(2-thienyl)-8-hydro-(5H)-imidazo[5,4-g][3,1]benzoxazin-6-one], the “Diastolic blood pressure change” value is given as -24 mmHg, the “Duration of effect (half life)” value turned out to be 10 min and the “Increase of dp/dt” value is on record as “+28%”.

Regarding `CCN1C(=O)OC(C)(C)c2cc3[nH]c(-c4ccncc4)nc3cc21` [B, 5-ethyl-8,8-dimethyl-2-(4-pyridyl)-8-hydro-(5H)imidazo[5,4-g][3,1]benzoxazin-6-one], the “Diastolic blood pressure change” value is -21 mmHg, the “Duration of effect (half life)” value worked out at 16 min and the “Increase of dp/dt” value is “+52%”.

In the case of `CC1(C)OC(=O)Nc2cc3nc(-c4ccncc4)[nH]c3cc21` [A, 8,8-dimethyl-2-(4-pyridyl)-8-hydro-(5H)-imidazo[5,4-g][3,1]benzoxazin-6-one], the “Diastolic blood pressure change” value is 0 mmHg, the “Duration of effect (half life)” value came out at 18 min and the “Increase of dp/dt” value was “+43%”.

Turning to `CC1(C)OC(=O)Nc2cc3nc(-c4ccco4)[nH]c3cc21` [E, 8,8-dimethyl-2-(2-furyl)-8-hydro-(5H)-imidazo[5,4-g][3,1]benzoxazin-6-one], the “Diastolic blood pressure change” value is given as -16 mmHg, the “Duration of effect (half life)” value came to 7 min and the “Increase of dp/dt” value was “+31%”.

For the origin of these results see patent US4831027A, “Imidazo-benzoxazinones, the preparation thereof and pharmaceutical compositions containing these compounds” (Dr. Karl Thomae GmbH, priority 1986, dated 1989).
